Article PMC3226828 (Journal of medicinal chemistry, 2011)

Key:
[1] = system: 68 GPCRs, ion channels and transporters; assay: Ricerca Lead Profiling Screen; assay type: binding; settings: 10 µM; all 68 assays
[2] = system: haloperidol-induced catalepsy; assay: reversal of haloperidol-induced catalepsy; assay type: in vivo; settings: rat, p.o., haloperidol 0.75 mg/kg, 30 min, vs vehicle control
[3] = system: mGlu1,2,3; settings: 10 point concentration-response prior to EC20 agonist
[4] = rat in vivo pharmacokinetics, IV and PO; settings: for CL / clearance: IV 1 mg/kg, hydrochloride, 10% EtOH, 80% PEG-400, 10% saline; for clearance: CL
[5] = IV cassette pharmacokinetics in beagle dog; settings: in vivo
[6] = IV cassette pharmacokinetics in rhesus monkey; settings: in vivo
[7] = previously reported tool compounds; cited from earlier work
[8] = previously reported tool compounds; cited from earlier work; remark: listed apart in the source
[9] = disclosed mGlu4 PAMs; cited from earlier work

O=C(Nc1ccc(N2C(=O)[C@@H]3[C@H](C2=O)[C@@H]2C=C[C@H]3C2)c(Cl)c1)c1ccccn1 [15f]
inhibition of radioligand binding [1]: ≤ 50%
reversal of haloperidol-induced catalepsy [2]: produced a reversal of haloperidol-induced catalepsy
reversal of haloperidol-induced catalepsy ([2]; listed as ML182): orally active
activity at mGlu 1, 2, 3 [3]: inactive
CL ([4]; 1 mg/kg): 36.9 mL/min/kg
MRT ([4]; in vivo, iv, 1 mg/kg): 8.22 h
Vd ([4]; in vivo, iv, 1 mg/kg): 18 L/kg
half-life ([4]; in vivo, iv, 1 mg/kg): 0.673 h
clearance ([4]; in vivo, iv, 1 mg/kg): 37 mL/min/kg
AUC(0-t) ([4]; in vivo, po, 10 mg/kg): 4350 ng·h/mL

O=C(Nc1ccc(N2C(=O)CC(c3ccccc3)C2=O)c(Cl)c1)c1ccccn1 (centres unmarked) [15k, N-(3-Chloro-4-(2,5-dioxo-3-phenylpyrrolidin-1-yl)phenyl)picolinamide]
MRT ([4]; in vivo, iv, 1 mg/kg): 1.82 h
clearance ([4]; in vivo, iv, 1 mg/kg): 5.4 mL/min/kg
clearance [5]: 7 mL/min/kg
clearance [6]: 3 mL/min/kg

COc1cc(NC(=O)c2ccccn2)ccc1Cl [compound 2]
rat CLHEP [7]: 65.5 mL/min/kg
rPPB (%fu) [8]: 2.4 %fu
CNS penetration when dosed systemically [9]: CNS penetrant

O=C(Nc1ccc(N2C(=O)CC3(CCCCC3)C2=O)c(Cl)c1)c1ccccn1 [15j, N-(3-Chloro-4-(1,3-dioxo-2-azaspiro[4.5]decan-2-yl)phenyl)picolinamide]
CL ([4]; 1 mg/kg): 48.3 mL/min/kg
MRT ([4]; in vivo, iv, 1 mg/kg): 0.953 h
clearance ([4]; in vivo, iv, 1 mg/kg): 48 mL/min/kg
